Reference: patent publication US20080069849A1, “Novel Antimicrobial Peptides” (Dermagen AB, priority 2004, published 2008)

How the values were obtained:
[1] = test system: Candida albicans ATCC90028; experiment: Radial diffusion assay (RDA), Candida ATCC90028; format: cell-based; conditions: zone of inhibition; mean of three measurements; Table 1
Protocol: (§1) Escherichia coli 37.4 isolate was originally obtained from a patient with a chronic venous ulcer, while Staphylococcus aureus isolate BD14312 was from a patient with atopic dermatitis. Staphylococcus aureus ATCC29213 and Candida albicans ATCC90028 were both obtained from the Clinical Bacteriology Department at Lund University hospital.
(§2) Essentially as described earlier (Lehrer et al., J Immunol Methods 137, 167-173, 1991, Andersson et al., Eur J Biochem 271, 1219-1226, 2004) bacteria were grown to mid-logarithmic phase in 10 ml of full-strength (3% w/v) trypticase soy broth (TSB) (Becton-Dickinson, Cockeysville, Md.). The microorganisms were then washed once with 10 mM Tris, pH 7.4.4×10^6 bacterial colony forming units were added to 15 ml of the underlay agarose gel, consisting of 0.03% (w/v) TSB, 1% (w/v) low electroendosmosis type (EEO) agarose (Sigma, St Louis Mo.) and 0.02% (v/v) Tween 20 (Sigma). The underlay was poured into a ø 144 mm petri dish. After agarose solidification, 4 mm-diameter wells were punched and 6 μl of test sample was added to each well. Plates were incubated at 37° C. for 3 hours to allow diffusion of the peptides. The underlay gel was then covered with 15 ml of molten overlay (6% TSB and 1% Low-EEO agarose in dH2O). Antimicrobial activity of a peptide is visualized as a zone of clearing around each well after 18-24 hours of incubation at 37° C.

Escherichia coli 37.4 = experiment: Radial diffusion assay (RDA), E. coli 37.4; format: cell-based; conditions: for RDA (mm) E. coli 37.4 Mean: zone of inhibition
Protocol: as §1, §2

[2] = test system: Staphylococcus aureus isolate BD14312; experiment: Radial diffusion assay (RDA), S. aureus BD14312; format: cell-based; conditions: zone of inhibition; mean of three measurements; Table 1
Protocol: as §1, §2

[3] = test system: Staphylococcus aureus ATCC29213; experiment: Radial diffusion assay (RDA), S. aureus ATCC29213; format: cell-based; conditions: zone of inhibition
Protocol: as §1, §2

[4] = Binding to lipid bilayers by ellipsometry; conditions: 10 mM Tris, pH 7.4
Protocol: (§3) Peptides were tested for binding to lipid bilayers, resulting pore formation and peptide secondary structure in the lipid membranes. Lipid membranes investigated included both zwitterionic ones (containing phosphatidylcholine) and anionic ones (containing mixtures of phosphatidylcholine and phosphatidic acid). Lipid membranes were deposited at silica, and the binding of the peptides from 10 mM Tris, pH 7.4, was directly monitored by ellipsometry. […] Pore formation in these liposomes were determined by including carboxyfluorescein in the liposomes and following the fluorescence intensity increase on addition of peptides to the liposomes. Furthermore, the secondary structure of the peptides in the liposome lipid membranes was probed by circular dichroism.

[5] = Pore formation / carboxyfluorescein leakage of liposomes; conditions: 10 mM Tris, pH 7.4
Protocol: as §3

[6] = Heparin binding on nitrocellulose with radiolabelled heparin; conditions: unlabelled heparin 6 mg/ml
Protocol: Peptides were tested for heparin binding activities. Peptides were applied on nitrocellulose membranes (Hybond, Amersham Biosciences). Membranes were blocked (PBS, pH 7.4, 0.25% Tween 20, 3% bovine serum albumin) for one hour and incubated with radiolabelled heparin for one hour in the same buffer. […] The membranes were washed (3×10 min in PBS, pH 7.4, 0.25% Tween 20). A Bas 2000 radio imaging system (Fuji) was used for visualization of radioactivity.

[7] = test system: Pseudomonas aeruginosa 15159; experiment: Radial diffusion assay (RDA), P. aeruginosa 15159; format: cell-based; conditions: 100 μM of peptides, n=9
Protocol: as §2
Based on the criteria defined in EXAMPLE 1 several new variants with increased positive net charge, high helicity and increased amphipathicity were designed and synthesized. In order to rationally test as many different variants as possible a PEP screen library was utilized as described above. […]

[8] = Table 2, second generation PEPscreen

CC[C@H](C)[C@H](NC(=O)[C@H](CCCCN)NC(=O)[C@H](CCC(=O)O)NC(=O)[C@H](CCCCN)NC(=O)[C@H](CO)NC(=O)[C@H](CCCCN)NC(=O)[C@H](CCCNC(=N)N)NC(=O)[C@H](Cc1ccccc1)NC(=O)[C@H](Cc1ccccc1)NC(=O)[C@H](CC(=O)O)NC(=O)CNC(=O)[C@H](CC(C)C)NC(=O)[C@@H](N)CC(C)C)C(=O)NCC(=O)N[C@@H](CCCCN)C(=O)N[C@@H](CCC(=O)O)C(=O)N[C@@H](Cc1ccccc1)C(=O)N[C@@H](CCCCN)C(=O)N[C@@H](CCCNC(=N)N)C(=O)N[C@H](C(=O)N[C@H](C(=O)N[C@@H](CCC(N)=O)C(=O)N[C@@H](CCCNC(=N)N)C(=O)N[C@H](C(=O)N[C@@H](CCCCN)C(=O)N[C@@H](CC(=O)O)C(=O)N[C@@H](Cc1ccccc1)C(=O)N[C@@H](CC(C)C)C(=O)N[C@@H](CCCNC(=N)N)C(=O)N[C@@H](CC(N)=O)C(=O)N[C@@H](CC(C)C)C(=O)N[C@H](C(=O)N1CCC[C@H]1C(=O)N[C@@H](CCCNC(=N)N)C(=O)N[C@H](C(=O)N[C@@H](CCC(=O)O)C(=O)N[C@@H](CO)C(=O)O)[C@@H](C)O)C(C)C)[C@@H](C)CC)C(C)C)[C@@H](C)CC [LL37, reference compound]
RDA (mm) Candida ATCC90028 Mean [1]: 2.43 mm
RDA (mm) E. coli 37.4 Mean (Escherichia coli 37.4; [8]): 5.604 mm
RDA (mm) E. coli 37.4 Mean (Escherichia coli 37.4; mean of six measurements, Table 1): 3.529 mm
RDA (mm) S. aureus BD14312 Mean [2]: 1.285 mm
RDA (mm) S. aureus ATCC29213 Mean [3, 8]: 8.755 mm
RDA (mm) S. aureus ATCC29213 Mean ([3]; mean of three measurements, Table 1): 2.215 mm

CNYITELSSQHASASHLGLAR [CNY21R-S]
binding to lipid membranes [4]: CNY21 shows a higher binding tendency than CNY21 R-S
pore formation and leakage of liposomes, order of efficiency [5]: CNY21H-L≈CNY21H-K>CNY21>CNY21H-P≧CNY21 R-S

CNYITELRRQHARASHLGLAR [CNY21]
RDA mean value, E. coli (Escherichia coli 37.4; 100 μM of peptides, n=9): 6.02
binding to lipid membranes [4]: binds to zwitterionic and anionic lipid membranes
pore formation and leakage of liposomes, order of efficiency [5]: CNY21H-L≈CNY21H-K>CNY21>CNY21H-P≧CNY21 R-S
heparin binding, competition by unlabelled heparin [6]: inhibited the binding
RDA mean value, P. aeruginosa [7]: 5.00
